Earlier results as cited in patent EP4060021A1, “MIMETIC MICROBIOLOGICAL CULTURE MEDIUM AND USES THEREOF” (BIOFILM PHARMA, priority 2021, dated 2022).
Read-outs that look alike come from different tables or passages of the source.

Experiments:
[1] = tested on: souches de S. aureus issues de plaies; details: cited from earlier work
[2] = tested on: souche de S. aureus; details: modèle de sepsis, souris infectée par S. aureus, traitées; cited from earlier work
[3] = tested on: S. aureus; details: coculture S. aureus avec P. aeruginosa dans du milieu Lubbock; cited from earlier work
[4] = tested on: P. aeruginosa; details: coculture S. aureus avec P. aeruginosa dans du milieu Lubbock; cited from earlier work

CCCCCCCCCC(=O)N[C@@H](Cc1c[nH]c2ccccc12)C(=O)N[C@@H](CC(N)=O)C(=O)N[C@@H](CC(=O)O)C(=O)N[C@@H]1C(=O)NCC(=O)N[C@@H](CCCN)C(=O)N[C@@H](CC(=O)O)C(=O)N[C@H](C)C(=O)N[C@@H](CC(=O)O)C(=O)NCC(=O)N[C@H](CO)C(=O)N[C@@H]([C@H](C)CC(=O)O)C(=O)N[C@@H](CC(=O)c2ccccc2N)C(=O)O[C@@H]1C (stereo in doubt) [daptomycine]
sensibilité des souches de S. aureus ([1]; milieu DMEM): plus sensibles
sensibilité des souches de S. aureus ([1]; milieux MLM ou Lacks): plus résistantes

CC(=O)OCC1=C(C(=O)O)N2C(=O)[C@@H](NC(=O)Cc3cccs3)[C@H]2SC1 [cefalotine]
survie des souris [2]: ont survécu

CO/N=C(\C(=O)N[C@@H]1C(=O)N2C(C(=O)O)=C(CSc3nc(=O)c(=O)[nH]n3C)CS[C@H]12)c1csc(N)n1 [ceftriaxone]
survie des souris [2]: ont survécu

CC[C@H]1OC(=O)[C@H](C)[C@@H](O[C@H]2C[C@@](C)(OC)[C@@H](O)[C@H](C)O2)[C@H](C)[C@@H](O[C@@H]2O[C@H](C)C[C@H](N(C)C)[C@H]2O)[C@](C)(O)C[C@@H](C)C(=O)[C@H](C)[C@@H](O)[C@]1(C)O [érythromycine]
survie des souris [2]: ont survécu

gentamicine
résistance en coculture [3]: résistance partielle
résistance en coculture [4]: ce qui n'est pas le cas
